What is called IC50 is the concentration that gives 50% inhibition. Lower therefore signals greater potency. A word on the melting point: it is the temperature of the solid-liquid transition.

The target in data set [1] is T1, CCR-5 receptor (Homo sapiens, UniProt P51681).
T1 construct: membranes prepared from CCR-5/L 1.2 cells; expressed in transfected cells; host or cells: L1.2 cells (CCR-5/L 1.2), membrane preparation
Kind of data set: 125I-gp120/sCD4/CCR-5 binding assay (CCR-5 receptor binding assay). As to conditions: block of 125I-gp120 (HIV-1 JR-FL)/sCD4 binding to membranes from CCR-5/L 1.2 cells. How it is done:
The ^125I-gp120/sCD4/CCR-5 binding assay is carried out similarly as described in Wu et al., Nature, 1996;384:179-183. Briefly, the envelope gp120 protein derived from HIV-1 JR-FL (Trkola et al., Nature, 1996;384:184-186), a M-tropic strain, is iodinated using solid phase lactoperoxidase to a specific activity of 20 μCi/μg. For each binding reaction (in a final volume of 100 μL binding buffer [50 mM HEPES, pH 7.5, 1 mM CaCl2, 5 mM MgCl2, and 0.5% BSA]), 25 μL (2.5 μg) of membranes prepared from CCR-5/L 1.2 cells are mixed with 25 μL (3 nM) sCD4, followed by 25 μL (0.1 nM) radiolabeled gp120 in the presence or absence of 25 μL compound dissolved in DMSO (final concentration of DMSO 0.5%). The reactions are incubated at room temperature for 45 to 60 minutes and stopped by transferring the mixture to GFB filter plates, which are then washed 3 to 4 times with binding buffer containing 0.5 M NaCl. The plates are dried and MicroScint scintillation fluid is added before counting.

T1 sequence (P51681 whole entry): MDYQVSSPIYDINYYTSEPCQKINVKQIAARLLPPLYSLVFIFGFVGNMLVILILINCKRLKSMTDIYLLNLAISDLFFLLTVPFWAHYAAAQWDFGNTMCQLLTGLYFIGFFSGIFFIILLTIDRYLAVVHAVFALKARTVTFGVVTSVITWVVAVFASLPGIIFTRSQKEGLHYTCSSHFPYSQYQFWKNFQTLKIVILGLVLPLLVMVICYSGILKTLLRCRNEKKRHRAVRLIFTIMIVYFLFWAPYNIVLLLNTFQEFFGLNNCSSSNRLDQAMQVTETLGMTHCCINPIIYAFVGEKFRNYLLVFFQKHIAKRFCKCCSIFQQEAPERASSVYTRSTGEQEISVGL

Take `O=C1/C(=C\c2cccc(F)c2)SC(c2cccc(F)c2)N1CCCN1CCC(N2CCCCC2)CC1` (centres unmarked) [Compound 6, 3-(3-[1,4′]Bipiperidinyl-1′-yl-propyl)-5-(3-fluorobenzylidene)-2-(3-fluorophenyl)-thiazolidin-4-one]: the melting point fell in the range of 160 to 162 °C. In addition, the IC50 in data set [1] is 1260 nM.
In the case of `O=C1/C(=C\C2CCCCC2)SC(c2cccc(Cl)c2)N1CCCN1CCCCC1` (centres unmarked) [Compound 14, 2-(3-Chlorophenyl)-5-cyclohexylmethylene-3-(3-piperidin-1-yl-propyl)-thiazolidin-4-one], the melting point was in the range of 90 to 91 °C. In data set [1], the half-inhibitory concentration (IC50) amounted to 460 nM.
The matching figures for `CCN(CC)CCSCCCN1C(=O)/C(=C\c2cccc(F)c2)SC1c1cccc(Cl)c1` (centres unmarked) [Compound 15, 2-(3-Chlorophenyl)-3-[3-(2-diethylaminoethylsulfanyl)propyl]-5-(3-fluorobenzylidene)-thiazolidin-4-one]: 41 to 43 °C and 12700 nM.
In the same order, the values of `O=C1CSC(c2cccc(Cl)c2)N1C1CCN(Cc2ccccc2)CC1` (centres unmarked) [Compound 16, 3-(1-Benzylpiperidin-4-yl)-2-(3-chlorophenyl)-thiazolidin-4-one] are 140 to 141 °C and 3810 nM.
Regarding `O=C1/C(=C\c2cccc(F)c2)SC(c2cccc(Cl)c2)N1C1CCN(Cc2ccccc2)CC1` (centres unmarked) [Compound 19, 3-(1-Benzylpiperidin-4-yl)-2-(3-chlorophenyl)-5-(3-fluorobenzylidene)-thiazolidin-4-one], the melting point is 121 to 123 °C. In data set [1], this compound showed an IC50 of 280 nM.
In the same order, the values of `O=C1/C(=C\c2ccco2)SC(c2cccc(Cl)c2)N1CCCN1CCCCC1` (centres unmarked) [Compound 20, 2-(3-Chlorophenyl)-5-(furan-2-ylmethylene)-3-(3-piperidin-1-yl-propyl)-thiazolidin-4-one] are 156 to 158 °C and 170 nM.
In the same order, the values of `O=C1/C(=C\c2cccc(F)c2)SC(c2cccc(Cl)c2)N1CCCN1CCOCC1` (centres unmarked) [Compound 23, 2-(3-Chlorophenyl)-5-(3-fluorobenzylidene)-3-(3-morpholin-4-yl-propyl)-thiazolidin-4-one] are 142 to 143 °C and 1990 nM.

The values above are taken from patent US6506751B1, “Thiazolidinone compounds useful as chemokine inhibitors” (Millennium Pharmaceuticals, Inc., priority 1999, dated 2003).
